Entries after “also recorded” stand apart in the source; their conditions may differ. Like-named read-outs stand apart in the source and are kept apart here.
Experiments:
PDE3 = conditions: cited from earlier work
PDE4 = conditions: cited from earlier work
PDE2 = PDE2 (Homo sapiens, UniProt O00408); conditions: cited from earlier work
PDE6 = conditions: cited from earlier work
[1] = test system: isolated rabbit corpus cavernosum; conditions: read-out: EC50, relaxant effect; cited from earlier work
PDE1 = conditions: cited from earlier work
PDE5 = PDE5 (Homo sapiens, UniProt O76074); conditions: cited from earlier work
[2] = rat, in vivo; cited from earlier work
[3] = test system: human Aβ40 and Aβ42 levels; conditions: rolipram, earlier study; cited from earlier work
APP/PS1 mice [4] = experiment: Radial-arm water maze (spatial working memory); type: in vivo, mouse; conditions: APP/PS1 (transgenic) mice
Description: Next, the effect of treatment with sildenafil was examined on spatial working memory, a type of short-term memory that can be studied with the radial-arm water maze test. […] Mice were required to learn and memorize the location of a hidden platform in one of the arms of a maze with respect to spatial cues. […] However, daily injections of sildenafil for 3 weeks immediately after the 4th acquisition trial ameliorated the behavioural performance of APP/PS1 mice (FIG. 2B).
The effects of one course of 3-week treatment with sildenafil on spatial working memory were next tested using the radial-arm water-maze task. There was a difference between the number of errors made by vehicle-treated APP/PS1 and WT mice (FIG. 3B)^A12. Administration of sildenafil for 3 weeks, 9-12 weeks prior to the testing, reduced the gap between the two groups without affecting performance of the WT animals (FIG. 3B).
Three-month-old APP/PS1 and WT mice were separated into 4 groups: APP/PS1 mice treated with vehicle, APP/PS1 mice treated with PDE inhibitor, WT mice treated with vehicle, and WT mice treated with PDE inhibitor. […] In the remaining experiments, sildenafil was injected via i.p. The drug was administered either acutely or for 1 course of 3 week treatment. For assessment of the short-term effects of sildenafil, the drug was given at a concentration of 3 mg/kg immediately after the training. This dose yields concentrations of ˜2.5 μM cGMP in the hippocampus^A53. For assessment of long-term effects, sildenafil was given daily by i.p. injection at a concentration of 3 mg/kg for 3 weeks and then treatment was stopped for 9-12 weeks prior to behavioral testing. Contextual and cued fear conditioning was performed for 3 days. Radial-arm water-maze (RAWM) was performed for 3 weeks. Then, the animals were sacrificed for electrophysiological recordings. To decide the time of administration of sildenafil in the acute experiments, a series of studies was performed in which the inhibitor was injected i.p. at 5 min before the electric shock or at 5 min before the first acquisition trial with the radial arm water maze. […] Thus, all the behavioral experiments on the acute effects of sildenafil reported in the result section were performed with injection after the training.
This is a type of short-term memory that can be studied with the RAWM test^12. Briefly, the RAWM consisted of a white tank (120 cm diameter) filled with water (24-25° C.) and made opaque by the addition of non-toxic white paint. Within the tank walls were positioned so as to produce six arms, radiating from a central area. Spatial cues were presented on the walls of the testing room. At the end of one of the arms was positioned a clear 10 cm submerged (1.5 cm) platform that remained in the same location for every trial in one day, but was moved about randomly from day to day. On each trial the mouse started the task from a different randomly chosen arm. […] Each trial lasted 1 min and errors were counted each time the mouse entered the wrong arm or needed more than 20 sec to reach the platform. After each error the mouse was pulled back to the start arm for that trial. After 4 consecutive acquisition trials, the mouse was placed in its home cage for 30 min, then returned to the maze and administered a 5th retention trial. Testing was considered completed as the WT mice made the same number of errors at the 4th and 5th trial. The scores for each mouse on the last three days of testing were averaged and used for statistical analysis.

APP/PS1 mice [5] = experiment: Contextual and cued fear conditioning; type: in vivo, mouse; conditions: for effect on contextual fear memory in words: APP/PS1 (transgenic) mice
Procedure: Given that sildenafil reversed LTP deficits in 3-month-old APP/PS1, it was then tested whether the inhibitor reversed the cognitive defects in these animals. As reported above sildenafil offers the advantage of crossing the BBB and therefore it can be easily utilized in behavioural experiments. Three-month-old mice were divided into 4 groups: APP/PS1 with sildenafil, APP/PS1 with vehicle, WT with sildenafil and WT with vehicle. Sildenafil and vehicle control solutions were administered i.p. at a concentration of 3 mg/kg. This concentration was chosen based on previous studies showing that these amounts of sildenafil raise hippocampal cGMP levels and improve memory in aged rats^A6 and mice^A7 independent of vascular effects^A6. The effects of acute administration of sildenafil was first examined on fear-conditioning learning, a type of learning that is impaired in several AD mouse models^A14 and depends on hippocampus and amygdala. The hippocampus is indispensable for contextual fear conditioning^A15, a form of associative learning in which mice must associate a neutral stimulus with an aversive one. Mice were trained to associate neutral stimuli with an aversive one. They were placed in a new context (fear conditioning box), exposed to a white noise cue (CS) paired with a mild foot shock (US), and injected with sildenafil immediately after the training. Fear learning was assessed twenty-four hours later by measuring freezing behaviour—the absence of all movement except for that necessitated by breathing—in response to representation of the context or of the auditory cue within a completely different context. No difference was found in the freezing behaviour among the four groups of mice before the training phase (FIG. 2A). Twenty-four hours later, a decrease in the freezing behaviour of vehicle-treated APP/PS1 mice compared with that of vehicle-treated WT littermates in the analysis of the contextual learning was observed (FIG. 2A). […] Fear conditioning, a hippocampus-independent task A^15, was next tested and no difference in freezing among the 4 groups was found, as APP/PS1 mice are known to have a selective hippocampus-dependent impairment in associative learning^A14.
Sildenafil was tested to determine whether a brief course of treatment can provide long term benefits. The PDE5 inhibitor was examined to see if it maintains its protective effect against synaptic dysfunction and memory loss. In these experiments, both APP/PS1 and WT mice of 3 months of age were injected intraperitoneally with 3 mg/kg/day sildenafil for 3 weeks, then the treatment was stopped for 9-12 weeks prior to testing. The mice were next subjected to training for contextual learning. […] There were no differences between the 4 groups in the cued conditioning test.
Three-month-old APP/PS1 and WT mice were separated into 4 groups: APP/PS1 mice treated with vehicle, APP/PS1 mice treated with PDE inhibitor, WT mice treated with vehicle, and WT mice treated with PDE inhibitor. […] In the remaining experiments, sildenafil was injected via i.p. The drug was administered either acutely or for 1 course of 3 week treatment. For assessment of the short-term effects of sildenafil, the drug was given at a concentration of 3 mg/kg immediately after the training. This dose yields concentrations of ˜2.5 μM cGMP in the hippocampus^A53. For assessment of long-term effects, sildenafil was given daily by i.p. injection at a concentration of 3 mg/kg for 3 weeks and then treatment was stopped for 9-12 weeks prior to behavioral testing. Contextual and cued fear conditioning was performed for 3 days. Radial-arm water-maze (RAWM) was performed for 3 weeks. Then, the animals were sacrificed for electrophysiological recordings. To decide the time of administration of sildenafil in the acute experiments, a series of studies was performed in which the inhibitor was injected i.p. at 5 min before the electric shock or at 5 min before the first acquisition trial with the radial arm water maze. […]

[6] = test system: CA1 region of hippocampal slices from APP/PS1 and WT mice; experiment: Electrophysiological analysis (BST, LTP) of hippocampal slices perfused with inhibitor; type: cell-based, mouse
[7] = in vivo, cited from earlier work
[8] = 3 month-old WT, sildenafil 3 mg/Kg or tadalafil 1 mg/Kg i.p.
[9] = WT slices, 120 min after tetanus, sildenafil 50 nM, tadalafil 50 nM, IC354 1 μM
[10] = WT slices, sildenafil or tadalafil 50 nM
[11] = slices of 3-month-old APP/PS1 mice, 120 min after tetanus, 10 min perfusion (sildenafil 50 nM, tadalafil 50 nM, IC354 1 μM)

Chain of PDE2 (O00408 whole entry): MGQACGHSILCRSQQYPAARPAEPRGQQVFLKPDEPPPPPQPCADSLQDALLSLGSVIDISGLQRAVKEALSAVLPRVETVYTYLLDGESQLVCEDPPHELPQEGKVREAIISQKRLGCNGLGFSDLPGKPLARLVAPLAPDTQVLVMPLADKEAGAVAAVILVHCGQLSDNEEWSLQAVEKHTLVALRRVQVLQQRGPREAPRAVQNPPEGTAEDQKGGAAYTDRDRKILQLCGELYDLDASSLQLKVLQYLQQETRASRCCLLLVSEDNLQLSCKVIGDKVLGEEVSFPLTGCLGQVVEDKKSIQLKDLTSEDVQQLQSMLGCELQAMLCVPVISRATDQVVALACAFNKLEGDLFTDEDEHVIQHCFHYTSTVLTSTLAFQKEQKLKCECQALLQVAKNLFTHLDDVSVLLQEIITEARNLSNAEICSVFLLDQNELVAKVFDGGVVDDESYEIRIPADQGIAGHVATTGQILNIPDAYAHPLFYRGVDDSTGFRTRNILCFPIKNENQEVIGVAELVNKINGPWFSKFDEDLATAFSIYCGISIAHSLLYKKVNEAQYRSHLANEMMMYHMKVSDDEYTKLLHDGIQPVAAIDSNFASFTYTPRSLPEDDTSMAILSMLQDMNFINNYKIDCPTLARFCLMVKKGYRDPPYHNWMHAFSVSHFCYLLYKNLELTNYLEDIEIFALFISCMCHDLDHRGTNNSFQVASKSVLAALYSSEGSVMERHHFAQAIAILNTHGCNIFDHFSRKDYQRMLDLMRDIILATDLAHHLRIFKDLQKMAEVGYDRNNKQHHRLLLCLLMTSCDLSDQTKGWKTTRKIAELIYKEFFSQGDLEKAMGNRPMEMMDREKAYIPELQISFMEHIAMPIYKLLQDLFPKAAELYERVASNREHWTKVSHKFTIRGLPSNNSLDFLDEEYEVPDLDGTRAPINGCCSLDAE

## COC(=O)c1c(-c2cc(OC)c(OC)c(OC)c2)c2ccc(OCc3ccccn3)cc2c(=O)n1-c1ccc(N)cc1.O=S(=O)(O)O [T1032]
PDE3
  PDE3/PDE5: > 10 000
PDE4
  PDE4/PDE5: 4700
PDE2
  PDE2/PDE5: > 10 000
PDE6
  selectivity ratio for PDE6 (PDE6/PDE5): 28
[1]
  EC50: 7.9 nM
PDE1
  selectivity ratio for PDE1 (PDE1/PDE5): 1300
PDE5; read-out: IC50 against PDE5
  IC50: < 1 nM

## CCOC(=O)c1cc2c(cn1)[nH]c1ccccc12 [beta-CCE, Ethyl beta-carboline-3-carboxylate]
PDE5
  PDE5 inhibition in words: weak, non-selective PDE5 inhibitor

## Cc1cc(-c2ccccc2)nnc1NCCN1CCOCC1 [minaprine]
[2]
  brain/blood ratio: > 2

## COc1ccc(C2CNC(=O)C2)cc1OC1CCCC1 (stereo not drawn) [rolipram]
[3]
  effect on Aβ in brains of APP/PS1 mice in words: did not affect Aβ concentration; also recorded: did not affect Aβ load

## CN1CC(=O)N2C(Cc3c([nH]c4ccccc34)C2c2ccc3c(c2)OCO3)C1=O (stereo not drawn) [tadalafil, 6-benzo[1,3]dioxol-5-yl-2-methyl-2,3,6,7,12,12a-hexahydro-pyrazino[1′,2′:1,6]pyrido[3,4-b]indole-1,4-dione]
APP/PS1 mice [4]
  effect on spatial working memory (RAWM) in words: does not improve spatial working memory
APP/PS1 mice [4]; listed as Tadalafil
  effect on spatial working memory (RAWM) in words: did not improve
APP/PS1 mice [5]; 3 month-old APP/PS1, sildenafil 3 mg/Kg or tadalafil 1 mg/Kg i.p., 24 hrs after training
  contextual freezing time: 18.76±3.89%
APP/PS1 mice [5]; 3 month-old APP/PS1, tadalafil 1 mg/Kg i.p.
  contextual freezing time as % of vehicle-treated APP/PS1 mice: ~122%
APP/PS1 mice [5]; [8]
  contextual freezing as % of vehicle-treated WT mice: ~85%
  contextual freezing time: 28.29±3.30%
APP/PS1 mice [5]
  effect on contextual fear memory in words: does not modify contextual fear conditioning
APP/PS1 mice [5]; listed as Tadalafil
  effect on contextual fear memory in words: did not improve associative learning
[6]; [9]
  LTP, fEPSP slope as % of baseline: 232.45±21.92%
  level of LTP as % of vehicle-treated WT slices: ~106%
[6]; [10]
  basal synaptic responses without tetanus as % of vehicle-treated WT slices: ~98%
  basal synaptic responses without tetanus, fEPSP % of baseline: 103.65±1.63%
[6]; slices from APP/PS1 (transgenic) mice, 10 min prior to tetanus
  effect on LTP impairment in words: reverses LTP impairment
[6]; [11]
  LTP, fEPSP slope as % of baseline: 209.49±13.89%
  level of LTP as % of vehicle-treated WT littermates: ~96%
[7]
  ability to cross the BBB in words: unlikely to cross it; also recorded: does not cross it
[7]; listed as Tadalafil
  ability to cross the BBB in words: does not cross it

From patent US9974782B2, “Phosphodiesterase inhibitors and uses thereof” (THE TRUSTEES OF COLUMBIA UNIVERSITY IN THE CITY OF NEW YORK, priority 2008, dated 2018)
